From patent US4758580A, “Inhibiting growth of tumors with certain substituted phenoxy dimethyl alkanoic acids, esters or salts” (Yamanouchi Pharmaceutical Co., Ltd., priority 1985, dated 1988)

How the values were obtained:
Ehrlich solid tumor = test: Anti-tumor test against Ehrlich solid tumor; type: in vivo, ddY/SLC mice
Protocol: Ehrlich tumor cells, 2×10^6, on Day 7 after intraperitoneal transplantation to ddY/SLC mice were subcutaneously transplanted in the left abdomen of ddY/SLC mice (5 week age, male), 10 each grouped into one. The active component was intraperitoneally or orally administered in a definite dose 24 hours after the transplantation, according to the schedule shown in Table 1 (A), (B) or (C). An effect of inhibiting growth of tumor was compared, by measuring the long diameter and short diameter of the tumor on 14, 20 and 21 Days after the transplantation, calculating the tumor size (mm^2) and determining a tumor growth inhibition rate of the group administered with the active component to the control group according to the following equation:
Growth inhibition rate (%)=(C-T)/C×100
T: means tumor size (mm^2) in the active component-administered group
C: mean tumor size (mm^2) in the control group

MM-46 solid tumor = test: Test against mouse mammalian MM-46 solid tumor; type: in vivo, C3 H/He/SLC mice; conditions: 1-9 Days
Protocol: (§1) MM-46 Tumor cells, 1×10^6, on Day 7 after intraperitoneal transplantation to C3 H/He/SLC mice were subcutaneously transplanted to the left abdomen of C3 H/He/SLC mice (5 week age, male) of 8 mice each being grouped in one (21 mice for the control group). The active component was orally administered in a definite dose 24 hours after the transplantation according to the schedule shown in Table 2. An effect of tumor growth inhibition was compared by measuring the long diameter and short diameter of the tumor on Days 14 and 21 after the transplantation, calculating the tumor size (mm^2) and determining a tumor growth inhibition rate of the active component-administered group to the control group.

Meth A solid tumor = test: Anti-tumor test against methyl cholanthrene-induced Meth A solid tumor; type: in vivo, Balb/C/SLC mice; conditions: 1-8 Days
Protocol: as §1, with “Meth A tumor” for “MM-46 Tumor”, “1.5×10^6,” for “1×10^6,”, “Balb/C/SLC” for “C3 H/He/SLC”, “(16” for “(21”, “3.” for “2.”, “15” for “14”

melanoma BL-6 = test: Inhibition of experimental metastasis (to the lung) of melanoma BL-6 in mice; type: in vivo, male BDF1 /SLC mice; conditions: 22th day
Protocol: (b) Inhibition of experimental metastasis (to the lung) of melanoma BL-6 in mice
BL-6 cancer cells, 5×10^4, were inoculated into the tail veins of male BDF1 /SLC mice (6 week age) of 6 mice each being grouped in one (13 mice for the control group). The test compounds were administered orally in a definite dose 24 hours after the inoculation. In order to see metastasis-inhibitory effect, on 22th day after the inoculation, the mice were anatomised to observe the metastasis to the lungs. The degree of metastasis was evaluated by the number of pulmonary nodules. [formula] T: Median number of pulmonary nodules of the administered group C: Median number of pulmonary nodules of the control group

[1] = Day 14, 25 mg/kg i.p., Days 1, 2, 3, 5, 6, 7 & 9
[2] = Day 14, 50 mg/kg i.p., Days 1, 2, 3, 5, 6, 7 & 9
[3] = Day 14, 100 mg/kg i.p., Days 1, 2, 3, 5, 6, 7 & 9
[4] = Day 21, 25 mg/kg i.p., Days 1, 2, 3, 5, 6, 7 & 9
[5] = Day 21, 50 mg/kg i.p., Days 1, 2, 3, 5, 6, 7 & 9
[6] = Day 21, 100 mg/kg i.p., Days 1, 2, 3, 5, 6, 7 & 9
[7] = Day 14, 1.0 mg/kg i.p., Days 1, 2, 3, 5 & 6
[8] = Day 21, 1.0 mg/kg i.p., Days 1, 2, 3, 5 & 6
[9] = Day 14, 50 mg/kg i.p., Days 1, 2, 3, 4, 6, 7, 8, 9
[10] = Day 14, 100 mg/kg i.p., Days 1, 2, 3, 4, 6, 7, 8, 9
[11] = Day 21, 50 mg/kg i.p., Days 1, 2, 3, 4, 6, 7, 8, 9
[12] = Day 21, 100 mg/kg i.p., Days 1, 2, 3, 4, 6, 7, 8, 9
[13] = 50 mg/kg oral, 1, 2, 3, 5, 6, 7, 8, 9 and 10 days
[14] = 100 mg/kg oral, 1, 2, 3, 5, 6, 7, 8, 9 and 10 days

In the case of `CCOC(=O)C(C)(C)CCCCCOc1ccc(OCCCCCn2ccnc2)cc1` [Compound C], the “Growth Inhibition Rate” value (Ehrlich solid tumor; [1]) was 18.4%, the “Size of Tumor” value (Ehrlich solid tumor; [1]) was 191.1 ± 88.8 mm^2 and the “Growth Inhibition Rate” value (Ehrlich solid tumor; [2]) was 42.4%. The “Size of Tumor” value (Ehrlich solid tumor; [2]) was 135.0 ± 66.9 mm^2, the “Growth Inhibition Rate” value (Ehrlich solid tumor; [3]) was 54.2% and the “Size of Tumor” value (Ehrlich solid tumor; [3]) was 107.3 ± 46.7 mm^2. The “Growth Inhibition Rate” value (Ehrlich solid tumor; [4]) was 31.9%, the “Size of Tumor” value (Ehrlich solid tumor; [4]) was 363.1 ± 188.8 mm^2 and the “Growth Inhibition Rate” value (Ehrlich solid tumor; [5]) was 61.0%. For the same compound, the “Size of Tumor” value (Ehrlich solid tumor; [5]) was 207.9 ± 139.7 mm^2, the “Growth Inhibition Rate” value (Ehrlich solid tumor; [6]) was 4.2% and the “Size of Tumor” value (Ehrlich solid tumor; [6]) was 190.7 ± 69.1 mm^2.

For `CO[C@@]12[C@H](COC(N)=O)C3=C(C(=O)C(C)=C(N)C3=O)N1C[C@@H]1N[C@@H]12` [Mitomycin, reference compound], the “Growth Inhibition Rate” value (Ehrlich solid tumor; [7]) was 67.7%, the “Size of Tumor” value (Ehrlich solid tumor; [7]) was 75.6 ± 31.5 mm^2 and the “Growth Inhibition Rate” value (Ehrlich solid tumor; [8]) was 80.0%. For the same compound, the “Size of Tumor” value (Ehrlich solid tumor; [8]) was 106.8 ± 62.2 mm^2.

With `COC(=O)C(C)(C)CCCOc1ccc(OCCCOc2cccnc2)cc1` [Compound I, methyl 2,2-dimethyl-5-[p-[3-(3-pyridyloxy)propoxy]phenoxy]pentanoate] the “Growth Inhibition Rate” value (Ehrlich solid tumor; [1]) was 29.6%, the “Size of Tumor” value (Ehrlich solid tumor; [1]) was 164.9 ± 96.2 mm^2 and the “Growth Inhibition Rate” value (Ehrlich solid tumor; [2]) was 26.2%. For the same compound, the “Size of Tumor” value (Ehrlich solid tumor; [2]) was 172.8 ± 82.9 mm^2, the “Growth Inhibition Rate” value (Ehrlich solid tumor; [3]) was 36.5% and the “Size of Tumor” value (Ehrlich solid tumor; [3]) was 148.7 ± 66.8 mm^2. The “Growth Inhibition Rate” value (Ehrlich solid tumor; [4]) was 36.9%, the “Size of Tumor” value (Ehrlich solid tumor; [4]) was 336.6 ± 160.0 mm^2 and the “Growth Inhibition Rate” value (Ehrlich solid tumor; [5]) was 30.7%. The “Size of Tumor” value (Ehrlich solid tumor; [5]) was 369.1 ± 203.5 mm^2, the “Growth Inhibition Rate” value (Ehrlich solid tumor; [6]) was 45.6% and the “Size of Tumor” value (Ehrlich solid tumor; [6]) was 290.2 ± 115.5 mm^2.

`CCOC(=O)C(C)(C)CCCCOc1ccc(OCCCCCOc2ccccn2)cc1` [Compound J, ethyl 6-[p-[5-(2-pyridyloxy)pentyloxy)phenoxy]-2,2-dimethylhexanoate] was tested, and the “Growth Inhibition Rate” value (Ehrlich solid tumor; [9]) was 20.9%, the “Size of Tumor” value (Ehrlich solid tumor; [9]) was 201.7 ± 48.2 mm^2 and the “Growth Inhibition Rate” value (Ehrlich solid tumor; [10]) was 34.7%. The “Size of Tumor” value (Ehrlich solid tumor; [10]) was 166.5 ± 65.3 mm^2, the “Growth Inhibition Rate” value (Ehrlich solid tumor; [11]) was 19.2% and the “Size of Tumor” value (Ehrlich solid tumor; [11]) was 344.7 ± 108.4 mm^2. For the same compound, the “Growth Inhibition Rate” value (Ehrlich solid tumor; [12]) was 38.2% and the “Size of Tumor” value (Ehrlich solid tumor; [12]) was 263.5 ± 97.1 mm^2.

With `O=c1[nH]c(=O)n(C2CCCO2)cc1F` (stereo not shown) [Tetrahydrofuryl-5-fluorouracil, reference compound] the “Growth Inhibition Rate” value (MM-46 solid tumor; Day 14, 50 mg/kg p.o.) was 14.2%, the “Size of Tumor” value (MM-46 solid tumor; Day 14, 50 mg/kg p.o.) was 216.0 ± 55.1 mm^2 and the “Growth Inhibition Rate” value (MM-46 solid tumor; Day 14, 100 mg/kg p.o.) was 14.7%. For the same compound, the “Size of Tumor” value (MM-46 solid tumor; Day 14, 100 mg/kg p.o.) was 214.8 ± 55.6 mm^2, the “Growth Inhibition Rate” value (MM-46 solid tumor; Day 21, 50 mg/kg p.o.) was 26.9% and the “Size of Tumor” value (MM-46 solid tumor; Day 21, 50 mg/kg p.o.) was 247.0 ± 101.8 mm^2. The “Growth Inhibition Rate” value (MM-46 solid tumor; Day 21, 100 mg/kg p.o.) was 26.0%, the “Size of Tumor” value (MM-46 solid tumor; Day 21, 100 mg/kg p.o.) was 250.1 ± 92.9 mm^2 and the “Growth Inhibition Rate” value (Meth A solid tumor; Day 15, 50 mg/kg p.o.) was 45.1%. For the same compound, the “Size of Tumor” value (Meth A solid tumor; Day 15, 50 mg/kg p.o.) was 123.4 ± 69.9 mm^2, the “Growth Inhibition Rate” value (Meth A solid tumor; Day 15, 100 mg/kg p.o.) was 58.6% and the “Size of Tumor” value (Meth A solid tumor; Day 15, 100 mg/kg p.o.) was 93.1 ± 50.3 mm^2. The “Growth Inhibition Rate” value (Meth A solid tumor; Day 21, 50 mg/kg p.o.) was 50.7%, the “Size of Tumor” value (Meth A solid tumor; Day 21, 50 mg/kg p.o.) was 235.8 ± 124.4 mm^2 and the “Growth Inhibition Rate” value (Meth A solid tumor; Day 21, 100 mg/kg p.o.) was 44.7%. The “Size of Tumor” value (Meth A solid tumor; Day 21, 100 mg/kg p.o.) was 264.4 ± 110.6 mm^2.

For `O=c1[nH]c(=O)n(C2CCCO2)cc1F` (stereo not shown) [Futoraful, reference compound], the Pulmonary metastasis-inhibition rate (melanoma BL-6; [13]) was 35.7%, the “The number of pulmonary nodules, median” value (melanoma BL-6; [13]) was 13.5 and the “The number of pulmonary nodules, range” value (melanoma BL-6; [13]) was 1-49. The Pulmonary metastasis-inhibition rate (melanoma BL-6; [14]) was 69.0%, the “The number of pulmonary nodules, median” value (melanoma BL-6; [14]) was 6.5 and the “The number of pulmonary nodules, range” value (melanoma BL-6; [14]) was 1-16.
